This assay deals with L1210 leukemia ip in BDF1 mice, survival T/C. Put plainly: NCI In Vivo Anticancer Drug Screen. Data for tumor model L1210 Leukemia (intraperitoneal) in B6D2F1 (BDF1) mice. The settings on record: endpoint: mean survival time, higher = longer survival. In short, it runs like this:
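Survival endpoint. Drug-treated group vs vehicle group, expressed as T divided by C. Tumor passaged by transplantation.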

The mark [1] stands for this setting: dose: 100.0 mg/kg/injection, schedule: Q04DX003 (ip), vehicle: Klucel (hydroxypropylcellulose) (HPC).
The mark [2] stands for this setting: dose: 20.0 mg/kg/injection, schedule: Q01DX001 (ip), vehicle: saline.

“And” between values parts separate entries of the source, which are not always exact repeats. Equal values may be shown once. Toxic doses and inconclusive results are not listed.

Regarding `CCC1C(=O)NC(=O)C1(C)c1ccccc1` (stereo not given), the T/C was 115 % of control (dose: 25.0 mg/kg/injection, schedule: Q01DX009 (ip), vehicle: saline); 120 % of control (dose: 25.0 mg/kg/injection, schedule: Q04DX003 (ip), vehicle: Klucel (hydroxypropylcellulose) (HPC)); 103 % of control (dose: 50.0 mg/kg/injection, schedule: Q01DX009 (ip), vehicle: saline); 101 % of control (dose: 50.0 mg/kg/injection, schedule: Q04DX003 (ip), vehicle: Klucel (hydroxypropylcellulose) (HPC)); 98 % of control (dose: 100.0 mg/kg/injection, schedule: Q01DX009 (ip), vehicle: saline); 101 % of control under setting [1]. Moreover, the T/C was 110 % of control (dose: 200.0 mg/kg/injection, schedule: Q01DX009 (ip), vehicle: saline); 93 % of control (dose: 200.0 mg/kg/injection, schedule: Q04DX003 (ip), vehicle: Klucel (hydroxypropylcellulose) (HPC)); 86 % of control (dose: 400.0 mg/kg/injection, schedule: Q01DX009 (ip), vehicle: saline); 104 % of control (dose: 400.0 mg/kg/injection, schedule: Q04DX003 (ip), vehicle: Klucel (hydroxypropylcellulose) (HPC)).

In the case of `Clc1ccc2c3c(cccc13)CC2`, the T/C was 97 % of control (dose: 75.0 mg/kg/injection, schedule: Q01DX001 (ip), vehicle: carboxymethylcellulose (CMC)); 97 % of control (dose: 150.0 mg/kg/injection, schedule: Q01DX001 (ip), vehicle: carboxymethylcellulose (CMC)); 97 % of control (dose: 300.0 mg/kg/injection, schedule: Q01DX001 (ip), vehicle: carboxymethylcellulose (CMC)).

Consider `CCCCCCCC(=O)N1C(=O)CCC1C(=O)NCCCCC(=O)OC` (stereo not given), for which the T/C (dose: 100.0 mg/kg/injection, schedule: Q04DX002 (ip), vehicle: saline with Tween-80) was 103 % of control; the T/C (dose: 200.0 mg/kg/injection, schedule: Q04DX002 (ip), vehicle: saline with Tween-80) is 116 % of control; the T/C (dose: 400.0 mg/kg/injection, schedule: Q04DX002 (ip), vehicle: saline with Tween-80) was 90 % of control.

For the compound `Cc1nc(-c2ccccc2)no1`, the T/C was 102 % of control (dose: 75.0 mg/kg/injection, schedule: Q01DX009 (ip), vehicle: Klucel (hydroxypropylcellulose) (HPC)); 97 % of control (dose: 100.0 mg/kg/injection, schedule: Q04DX002 (ip), vehicle: Klucel (hydroxypropylcellulose) (HPC)); 98 % of control (dose: 150.0 mg/kg/injection, schedule: Q01DX009 (ip), vehicle: Klucel (hydroxypropylcellulose) (HPC)); 102 % of control (dose: 200.0 mg/kg/injection, schedule: Q04DX002 (ip), vehicle: Klucel (hydroxypropylcellulose) (HPC)); 101 % of control (dose: 300.0 mg/kg/injection, schedule: Q01DX009 (ip), vehicle: Klucel (hydroxypropylcellulose) (HPC)); 97 % of control (dose: 400.0 mg/kg/injection, schedule: Q04DX002 (ip), vehicle: Klucel (hydroxypropylcellulose) (HPC)).

Turning to `CC(C)(C)C1COP(=S)(c2ccccc2)OC1` (stereo not given), the T/C under setting [1] was 96 % of control.

As to `CC(=O)Nc1ncnc2n[nH]c(C#N)c12`, the T/C (dose: 50.0 mg/kg/injection, schedule: Q01DX005 (ip), vehicle: saline with Tween-80) was 108 % of control and the T/C (dose: 100.0 mg/kg/injection, schedule: Q01DX005 (ip), vehicle: saline with Tween-80) was 106 % of control.

For the compound `CCOC(=O)Nc1cc2[nH]cnc2c(NC(=O)OCC)n1`, the T/C is 95 % of control (dose: 75.0 mg/kg/injection, schedule: Q01DX001 (ip), vehicle: saline); 101 % of control (dose: 150.0 mg/kg/injection, schedule: Q01DX001 (ip), vehicle: saline); 92 % of control (dose: 300.0 mg/kg/injection, schedule: Q01DX001 (ip), vehicle: saline).

As to `COc1cc2c(cc1OC)C(Cc1cc(OC)c(OC)cc1[N+](=O)[O-])=NCC2`, the T/C was 100 % of control (dose: 100.0 mg/kg/injection, schedule: Q01DX001 (ip), vehicle: saline); 98 % of control (dose: 200.0 mg/kg/injection, schedule: Q01DX001 (ip), vehicle: saline); 94 % of control (dose: 400.0 mg/kg/injection, schedule: Q01DX001 (ip), vehicle: saline).

Take `O=CC(NC(=O)N(CCCl)N=O)C(O)C(O)C(O)CO` (stereo not given): the T/C reads like this: (dose: 2.0 mg/kg/injection, schedule: Q01DX009 (ip), vehicle: carboxymethylcellulose (CMC)) 169 % of control; (dose: 2.0 mg/kg/injection, schedule: Q01DX009 (ip), vehicle: other) 163 % of control; (dose: 2.0 mg/kg/injection, schedule: Q01DX009 (ip), vehicle: saline) 172 % of control; (dose: 3.0 mg/kg/injection, schedule: Q01DX009 (ip), vehicle: carboxymethylcellulose (CMC)) 186 % of control; (dose: 3.0 mg/kg/injection, schedule: Q01DX009 (ip), vehicle: other) 180 % of control; (dose: 3.0 mg/kg/injection, schedule: Q01DX009 (ip), vehicle: saline) 259 % of control. Further, the T/C is 204 % of control (dose: 4.4 mg/kg/injection, schedule: Q01DX009 (ip), vehicle: carboxymethylcellulose (CMC)); 290 % of control (dose: 4.4 mg/kg/injection, schedule: Q01DX009 (ip), vehicle: other); 308 % of control (dose: 4.4 mg/kg/injection, schedule: Q01DX009 (ip), vehicle: saline); 154 % of control (dose: 4.5 mg/kg/injection, schedule: Q01DX009 (ip), vehicle: saline); 152 % of control (dose: 6.0 mg/kg/injection, schedule: Q01DX001 (ip), vehicle: carboxymethylcellulose (CMC)); 154 % of control (dose: 6.0 mg/kg/injection, schedule: Q01DX001 (ip), vehicle: other). The T/C runs as follows: (dose: 6.7 mg/kg/injection, schedule: Q01DX009 (ip), vehicle: carboxymethylcellulose (CMC)) 318 % of control; (dose: 6.7 mg/kg/injection, schedule: Q01DX009 (ip), vehicle: other) 151 % of control; (dose: 6.7 mg/kg/injection, schedule: Q01DX009 (ip), vehicle: saline) 471 % of control; (dose: 6.8 mg/kg/injection, schedule: Q01DX009 (ip), vehicle: saline) 207 % of control; (dose: 9.0 mg/kg/injection, schedule: Q01DX001 (ip), vehicle: carboxymethylcellulose (CMC)) 208 % of control and 213 % of control; (dose: 9.0 mg/kg/injection, schedule: Q01DX001 (ip), vehicle: other) 155 % of control. Further, the T/C by setting is: (dose: 9.0 mg/kg/injection, schedule: Q01DX001 (ip), vehicle: saline) 336 % of control; (dose: 10.0 mg/kg/injection, schedule: Q01DX009 (ip), vehicle: carboxymethylcellulose (CMC)) 281 % of control; (dose: 10.0 mg/kg/injection, schedule: Q01DX009 (ip), vehicle: other) 107 % of control; (dose: 10.0 mg/kg/injection, schedule: Q01DX009 (ip), vehicle: saline) 152 % of control and 243 % of control; (dose: 13.0 mg/kg/injection, schedule: Q01DX001 (ip), vehicle: carboxymethylcellulose (CMC)) 273 % of control and 302 % of control; (dose: 13.0 mg/kg/injection, schedule: Q01DX001 (ip), vehicle: other) 272 % of control. Moreover, the T/C by setting is: (dose: 13.0 mg/kg/injection, schedule: Q01DX001 (ip), vehicle: saline) 211 % of control and 424 % of control; (dose: 18.0 mg/kg/injection, schedule: Q01DX001 (ip), vehicle: saline) 505 % of control; (dose: 20.0 mg/kg/injection, schedule: Q01DX001 (ip), vehicle: carboxymethylcellulose (CMC)) 455 % of control and 531 % of control; (dose: 20.0 mg/kg/injection, schedule: Q01DX001 (ip), vehicle: other) 575 % of control; under setting [2], 296 % of control and 486 % of control; (dose: 26.0 mg/kg/injection, schedule: Q01DX001 (ip), vehicle: saline) 505 % of control. Besides, the T/C (dose: 30.0 mg/kg/injection, schedule: Q01DX001 (ip), vehicle: carboxymethylcellulose (CMC)) was 282 % of control and 537 % of control; the T/C (dose: 30.0 mg/kg/injection, schedule: Q01DX001 (ip), vehicle: other) is 506 % of control; the T/C (dose: 30.0 mg/kg/injection, schedule: Q01DX001 (ip), vehicle: saline) is 284 % of control and 617 % of control; the T/C (dose: 44.0 mg/kg/injection, schedule: Q01DX001 (ip), vehicle: carboxymethylcellulose (CMC)) was 162 % of control; the T/C (dose: 45.0 mg/kg/injection, schedule: Q01DX001 (ip), vehicle: carboxymethylcellulose (CMC)) was 266 % of control; the T/C (dose: 45.0 mg/kg/injection, schedule: Q01DX001 (ip), vehicle: other) is 153 % of control.

For the compound `O=[N+]([O-])c1ccc(/C(=C/c2ccccc2)[n+]2ccccc2)cc1`, the T/C by setting is: (dose: 10.0 mg/kg/injection, schedule: Q01DX001 (ip), vehicle: saline) 106 % of control; under setting [2], 100 % of control; (dose: 40.0 mg/kg/injection, schedule: Q01DX001 (ip), vehicle: saline) 100 % of control.
